This is an account of results in patent US9987276B2 (Celgene CAR LLC, priority 2008, dated 2018).

Where two headings read alike, the source gives them in different places.

Test [1] has as its target BTK (Homo sapiens (Human), UniProt Q06187). The test can be described thus: Omnia assay for potency assessment against BTK. The format is biochemical. Conditions: [BTK]=5 nM, Omnia assay; read-out: BTK Inhibition (IC50). As for the experimental part:
The modified BTK-optimized reagent conditions for the above protocol are:
[BTK]=5 nM, [ATP]=[…], [Y5-Sox]=[…] (ATP KMapp˜[…]).

Test [2] addresses EGFR-WT (Homo sapiens (Human), UniProt P00533). In words: Omnia assay for potency assessment against EGFR (WT).
Where [3] appears, read: read-out: EGFR (wild type inhibition), EGFR wild type.

Sequence of EGFR-WT (P00533 668-1210): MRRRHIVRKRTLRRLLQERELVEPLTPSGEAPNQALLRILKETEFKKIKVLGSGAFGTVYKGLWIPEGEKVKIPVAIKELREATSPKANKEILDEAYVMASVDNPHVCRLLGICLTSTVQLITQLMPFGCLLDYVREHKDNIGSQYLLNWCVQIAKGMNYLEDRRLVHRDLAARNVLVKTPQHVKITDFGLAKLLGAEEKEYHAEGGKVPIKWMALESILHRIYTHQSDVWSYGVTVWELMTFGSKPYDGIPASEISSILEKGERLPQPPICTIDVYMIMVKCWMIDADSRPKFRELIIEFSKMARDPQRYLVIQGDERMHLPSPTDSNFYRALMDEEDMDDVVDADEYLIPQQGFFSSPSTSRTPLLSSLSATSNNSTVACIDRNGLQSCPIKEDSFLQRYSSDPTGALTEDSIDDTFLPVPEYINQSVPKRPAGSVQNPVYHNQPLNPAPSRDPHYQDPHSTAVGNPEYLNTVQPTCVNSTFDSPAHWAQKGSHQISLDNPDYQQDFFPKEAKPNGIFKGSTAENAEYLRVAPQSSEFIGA
Sequence of BTK (Q06187 whole entry): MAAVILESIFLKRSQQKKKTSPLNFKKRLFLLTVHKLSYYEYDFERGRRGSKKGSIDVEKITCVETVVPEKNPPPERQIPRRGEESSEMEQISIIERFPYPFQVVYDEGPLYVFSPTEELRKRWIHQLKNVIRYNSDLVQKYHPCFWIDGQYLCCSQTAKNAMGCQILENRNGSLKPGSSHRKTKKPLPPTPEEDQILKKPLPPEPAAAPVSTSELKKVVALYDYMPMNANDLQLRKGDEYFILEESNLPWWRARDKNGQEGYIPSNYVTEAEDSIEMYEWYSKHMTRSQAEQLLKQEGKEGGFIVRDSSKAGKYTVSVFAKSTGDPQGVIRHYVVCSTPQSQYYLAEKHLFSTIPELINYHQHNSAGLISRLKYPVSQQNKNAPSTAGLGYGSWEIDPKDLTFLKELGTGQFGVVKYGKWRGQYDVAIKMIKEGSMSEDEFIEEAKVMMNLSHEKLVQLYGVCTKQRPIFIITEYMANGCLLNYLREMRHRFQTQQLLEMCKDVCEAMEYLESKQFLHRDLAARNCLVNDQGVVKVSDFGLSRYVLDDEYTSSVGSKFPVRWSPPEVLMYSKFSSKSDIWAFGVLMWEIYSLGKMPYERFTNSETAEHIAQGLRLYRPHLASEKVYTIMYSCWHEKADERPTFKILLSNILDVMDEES

`C=CC(=O)Nc1cccc(Nc2nc(Nc3ccc(Cl)c(O[C@@H]4CCOC4)c3)ncc2F)c1` [Compound I-341, (R)—N-(3-(2-(4-chloro-3-(tetrahydrofuran-3-yloxy)phenylamino)-5-fluoropyrimidin-4-ylamino)phenyl)acrylamide]: the figures for the IC50 in test [1] and in test [2] were less than 10 nM and 100 to 1000 nM, respectively.

Turning to `C=CC(=O)NCc1cccc(Nc2nc(Nc3ccccc3)ncc2C)c1` [Compound I-205, N-(3-(5-methyl-2-(phenylamino)pyrimidin-4-ylamino)benzyl)acrylamide], the IC50 in test [1] and in test [2] was 10 to 100 nM throughout.

For the molecule `C=CC(=O)Nc1cccc(Nc2nc(Nc3ccc(OCCOC)c(F)c3)ncc2C(F)(F)F)c1` [Compound I-352, N-(3-(5-trifluoromethyl-2-(3-fluoro-4-(2-methoxyethoxy)phenylamino)pyrimidin-4-ylamino)phenyl)acrylamide], the IC50 in test [1] and in test [2] (setting [3]) was less than 10 nM each time.

Take `C=CC(=O)Nc1cccc(Nc2nc(Nc3ccc(Cl)c(O[C@H](C)CO)c3)ncc2F)c1` [Compound I-358, (R)—N-(3-(2-(4-chloro-3-(1-hydroxypropan-2-yloxy)phenylamino)-5-fluoropyrimidin-4-ylamino)phenyl)acrylamide]: the IC50 is less than 10 nM in test [1] and 100 to 1000 nM in test [2].

On to `C=CC(=O)Nc1cccc(Nc2nc(Nc3ccc(OCC(O)CO)c(F)c3)ncc2F)c1` (stereo not drawn) [Compound I-334, N-(3-(2-(4-(2,3-dihydroxypropoxy)-3-fluorophenylamino)-5-fluoropyrimidin-4-ylamino)phenyl)acrylamide], for which the IC50 in test [1] and in test [2] (setting [3]) was less than 10 nM each time.

With `CC(C)=CC(=O)c1cccc(Nc2nc(Nc3ccccc3)ncc2C)c1` [Compound I-232, 3-methyl-1-(3-(5-methyl-2-(phenylamino)pyrimidin-4-ylamino)phenyl)but-2-en-1-one], the results for the IC50 in test [1] and in test [2] (setting [3]) were 10 to 100 nM and 1000 to 10000 nM, respectively.

As for `C=CC(=O)Nc1ccc(Nc2nc(Nc3cncc(OC)c3)ncc2C(F)(F)F)cc1` [Compound I-214, N-(4-(5-trifluoromethyl-2-(5-methoxypyridin-3-ylamino)pyrimidin-4-ylamino)phenyl)acrylamide], the IC50 in test [1] is 10 to 100 nM; in test [2], 100 to 1000 nM.

Regarding `C=CC(=O)Nc1cccc(Nc2nc(NCc3ccc(OC)cc3)ncc2F)c1` [Compound I-241, N-(3-(5-fluoro-2-(4-methoxybenzylamino)pyrimidin-4-ylamino)phenyl)acrylamide], the IC50 in test [1] and in test [2] (setting [3]) was 1000 to 10000 nM in each case.

Turning to `C=CC(=O)N1CCC[C@H](Oc2nc(Nc3cccc(OC)c3)ncc2F)C1` [Compound I-179, (S)-1-(3-(5-fluoro-2-(3-methoxyphenylamino)pyrimidin-4-yloxy)piperidin-1-yl)prop-2-en-1-one], the IC50 in test [1] was 100 to 1000 nM; in test [2], greater than 10000 nM.

As for `C=CC(=O)Nc1cccc(Nc2nc(Nc3cccc(OCC4CCN(C)CC4)c3)ncc2F)c1` [Compound I-82, N-(3-(5-fluoro-2-(3-((1-methylpiperidin-4-yl)methoxy)phenylamino)pyrimidin-4-ylamino)phenyl)-acrylamide], the IC50 in test [1] and in test [2] (setting [3]) was less than 10 nM in each case.

For the molecule `Cc1cccc(Nc2nc(Nc3cccc(NC(=O)/C=C/CN4C[C@@H](C)N[C@@H](C)C4)c3)ncc2F)c1` [Compound I-119, (E)-4-((3R,5S)-3,5-dimethylpiperazin-1-yl)-N-(3-(5-fluoro-4-(m-tolylamino)pyrimidin-2-ylamino)phenyl)but-2-enamide], the IC50 fell in the range of 10 to 100 nM in test [1] and 100 to 1000 nM in test [2].

With `C=C(C)C(=O)Cc1cccc(Nc2nc(Nc3ccc(OCCOC)c(F)c3)ncc2F)c1` [Compound I-328, 1-(3-(5-fluoro-2-(3-fluoro-4-(2-methoxyethoxy)phenylamino)pyrimidin-4-ylamino)phenyl)-3-methylbut-3-en-2-one], the IC50 in test [1] and in test [2] (setting [3]) was less than 10 nM each time.

For `C=CC(=O)N(C)Cc1ccc(Nc2nc(Nc3cccc(OC)c3)ncc2F)cc1` [Compound I-113, N-(4-(5-fluoro-2-(3-methoxyphenylamino)pyrimidin-4-ylamino)benzyl)-N-methylacrylamide], the IC50 in test [1] was less than 10 nM; in test [2], 100 to 1000 nM.

As for `C=CC(=O)Nc1cccc(Oc2nc(Nc3cccc(N4CCN(CCO)CC4)c3)ncc2F)c1` [Compound I-84, N-(3-(5-fluoro-2-(3-(4-(2-hydroxyethyl)piperazin-1-yl)phenylamino)pyrimidin-4-yloxy)phenyl)acrylamide], the IC50 in test [1] and in test [2] (setting [3]) was less than 10 nM in each case.

As for `C/C=C/C(=O)OCc1cccc(Nc2nc(Nc3ccccc3)ncc2C)c1` [Compound I-246, (E)-3-(5-methyl-2-(phenylamino)pyrimidin-4-ylamino) benzyl but-2-enoate], the IC50 is 10 to 100 nM in test [1] and 1000 to 10000 nM in test [2] (setting [3]).

Turning to `C=CC(=O)N(C)Cc1ccc(Oc2nc(Nc3ccc(OC)nc3)ncc2F)cc1` [Compound I-117, N-(4-(5-fluoro-2-(6-methoxypyridin-3-ylamino)pyrimidin-4-yloxy)benzyl)-N-methylacrylamide], the IC50 is less than 10 nM in test [1] and 1000 to 10000 nM in test [2] (setting [3]).

On to `CC(C)=CC(=O)c1cccc(Nc2nc(Nc3cccc(S(N)(=O)=O)c3)ncc2C)c1` [Compound I-224, 1-(3-(5-methyl-2-(3-aminosulfonylphenylamino)pyrimidin-4-ylamino)phenyl)-3-methylbut-2-en-1-one], for which the figures for the IC50 in test [1] and in test [2] were 10 to 100 nM and 100 to 1000 nM, respectively.

On to `C=CC(=O)Nc1cccc(Nc2nc(Nc3ccccc3)ncc2C(=O)NC2CC2)c1` [Compound I-221, 4-(3-acrylamidophenylamino)-N-cyclopropyl-2-(phenylamino)pyrimidine-5-carboxamide], for which the IC50 in test [1] and in test [2] was 10 to 100 nM in each case.

With `C=CC(=O)N1CCOc2ccc(Nc3nc(Nc4ccc(OCCOC)cc4)ncc3F)cc21` [Compound I-141, 1-(6-(5-fluoro-2-(4-(2-methoxyethoxy)phenylamino)pyrimidin-4-ylamino)-2H-benzo[b][1,4]oxazin-4(3H)-yl)prop-2-en-1-one], the IC50 in test [1] is less than 10 nM; in test [2] it was 10 to 100 nM.

For `C=CC(=O)N1CCOc2ccc(Nc3ncc(F)c(Nc4ccc5c(c4)CC(=O)N5)n3)cc21` [Compound I-130, 5-(2-(4-acryloyl-3,4-dihydro-2H-benzo[b][1,4]oxazin-6-ylamino)-5-fluoropyrimidin-4-ylamino)indolin-2-one], the IC50 in test [1] was less than 10 nM; in test [2], 10 to 100 nM.

As to `C=CC(=O)N1CCOc2ccc(Nc3ncc(F)c(Nc4ccc(OCc5ccccn5)c(Cl)c4)n3)cc21` [Compound I-343, 1-(6-(4-(3-chloro-4-(pyridine-2-ylmethoxy)phenylamino)-5-fluoropyrimidin-2-ylamino)-2H-benzo[b][1,4]oxazin-4(3H)-yl)prop-2-en-1-one], the IC50 in test [1] was 10 to 100 nM; in test [2], 100 to 1000 nM.
